Series [1] in a line: Stability assay in human serum. In kind it is in vitro ADME. The settings on record: initial 300 μM; for remaining at 24 h, 300 μM: male, human, human serum, over a 24-h period, read-out: peptide remained in human serum. On the procedure:
All peptides were tested on human serum from male AB plasma (Sigma–Aldrich) at an initial concentration of 300 μM. Peptide incubation time points were 0, 2, 4, 8, 16 and 24 h. Samples were prepared according to previously described methods. Briefly, 90 μL of supernatant was taken at each time point and chromatographed on a 0.3 mL/min Phenomenex column using a linear 1%/min gradient of 0–50% solvent B on an analytical reverse-phase HPLC (Agilent). The elution times for all peptides were determined by the serum control at 0 h. The stability of each peptide for each time point was calculated as the height of the serum-treated peptide peak at 215 nm as percentage of the height of the 0-h serum-treated control. Experiments were done in triplicate.

Series [2] concerns Human red blood cells. Description: Hemolytic assay. It counts as cell-based. The note with it: peptides 0.01–50 μM; melittin positive control from 20 μM. The procedure: Human red blood cells were used to measure the hemolysis of all peptides, with melittin used as a positive control. Peptides concentrations were 50 μM, 25 μM, 10 μM, 5 μM, 1 μM, 0.5 μM, 0.1 μM and 0.01 μM. Melittin was tested at eight concentrations, with two-fold dilution from a concentration of 20 μM. Sample absorbance was measured at 415 nm using a BioTek PowerWave XS instrument, as described previously. Experiments were done in triplicate.

The subject of series [3] is HT-29 (colon cancer cells). Description: Cell proliferation assay (MTT, 72 h). In kind it is cell-based. The note with it: 72-h period. On the procedure:
(§1) All cells were maintained using the media conditions described above, and passages 2–10 were used for all cell lines. Cell numbers of 2.5×10^3 cells/well (100 μL) were used for both HUVECs and HMVECs, and 1.5×10^3 cells/well (100 μL) were used for other cell lines in this assay. All cells were allowed to attach for 24 h after plating. Cells were treated with fresh media the next day, before the addition of peptides and then incubated for 72 h. Similar peptide concentrations to those mentioned above (in the cell cytotoxicity section) were used. 0.1% (v/v) Triton X-100 (10 μL) was used as a positive control. After 72 h of incubation, MTT and DMSO were added and analysed using the same method as described above.

Series [4] concerns PC3 cells (prostate cancer cells). Description: Cell proliferation assay (MTT, 72 h). In kind it is cell-based. The note with it: PC-3; 72-h period. On the procedure: as §1
Series [5] relates to matriptase over-expressed PC-3 cell line. More on the design: method as in PMID 24696092. The settings on record: cited from earlier work.
Series [6] has as its system HMVECs. More on the design: method as in PMID 15716381. The settings on record: at 5 nM; cited from earlier work.
The subject of series [7] is HUVECs. Also on record: method as in PMID 15716381. The note with it: at 16 nM; cited from earlier work.

Where a SMILES comes first, the peptide text is derived from it. Bridges are numbered along the chain shown (N, C = ends). [ ]: non-standard residue; d: D form.

The source of these data is paper PMC4660582, “Cyclic thrombospondin-1 mimetics: grafting of a thrombospondin sequence into circular disulfide-rich frameworks to inhibit endothelial cell migration” (Bioscience Reports, 2015).

With `CC[C@@H](C)[C@H]1NC(=O)[C@H](C(C)C)NC(=O)CNC(=O)[C@@H]2CSSC[C@H](NC(=O)[C@H](CCCNC(=N)N)NC(=O)[C@H]([C@@H](C)CC)NC(=O)[C@H](CCCNC(=N)N)NC(=O)[C@H]([C@@H](C)O)NC1=O)C(=O)N[C@@H]([C@@H](C)O)C(=O)N[C@@H](CCCCN)C(=O)N[C@@H](CO)C(=O)N[C@@H]([C@@H](C)CC)C(=O)N1CCC[C@H]1C(=O)N1CCC[C@H]1C(=O)N[C@@H]([C@@H](C)CC)C(=O)N2` [SFTI-TSP-1, CTKSIPPICGViTRIR], the remaining at 24 h, 300 μM in series [1] is > 50%.

In the case of `CC[C@@H](C)[C@H]1NC(=O)[C@H](C(C)C)NC(=O)CNC(=O)[C@@H]2CSSC[C@@H]3NC(=O)[C@H](CC(=O)O)NC(=O)[C@H](CO)NC(=O)[C@H](CC(=O)O)NC(=O)[C@H](CCCNC(=N)N)NC(=O)[C@H](CCCNC(=N)N)NC(=O)[C@@H]4CSSC[C@H](NC(=O)[C@H]([C@@H](C)CC)NC(=O)[C@H](CSSC[C@H](NC(=O)[C@H](CCCNC(=N)N)NC(=O)[C@H]([C@@H](C)CC)NC(=O)[C@H](CCCNC(=N)N)NC(=O)[C@H]([C@@H](C)O)NC1=O)C(=O)N1CCC[C@H]1C(=O)N[C@@H](CCCCN)C(=O)N[C@@H]([C@@H](C)CC)C(=O)N[C@@H](CC(C)C)C(=O)N[C@@H](CCCCN)C(=O)N[C@@H](CCCCN)C(=O)N4)NC(=O)[C@H](C)NC(=O)CNC(=O)[C@@H]1CCCN1C3=O)C(=O)N[C@@H](CCCNC(=N)N)C(=O)NCC(=O)N[C@@H](CC(N)=O)C(=O)NCC(=O)N[C@@H](Cc1ccc(O)cc1)C(=O)N2` [MCo-TSP-1] (cyclo(ACICRGNGYCGV[dI]TRIRCPKILKKCRRDSDCPG); disulfide 2-18, 4-25, 10-31), the remaining at 24 h, 300 μM in series [1] was > 50%. As to `CC[C@@H](C)[C@@H](NC(=O)[C@@H](NC(=O)CN)C(C)C)C(=O)N[C@H](C(=O)N[C@@H](CCCNC(=N)N)C(=O)N[C@H](C(=O)N[C@@H](CCCNC(=N)N)C(=O)O)[C@@H](C)CC)[C@@H](C)O` [linear TSP-1 heptapeptide, GViTRIR] (H-GV[dI]TRIR-OH), the “time within which degraded in human serum” value in series [1] is ≤ 24 h.

With `CC[C@H](C)[C@H](NC(=O)CN)C(=O)NCC(=O)N[C@@H](C)C(=O)N[C@H](C(=O)N[C@@H](CC(C)C)C(=O)N[C@@H](CCCCN)C(=O)N[C@H](C(=O)N[C@@H](CC(C)C)C(=O)N[C@H](C(=O)N[C@H](C(=O)NCC(=O)N[C@@H](CC(C)C)C(=O)N1CCC[C@H]1C(=O)N[C@@H](C)C(=O)N[C@@H](CC(C)C)C(=O)N[C@H](C(=O)N[C@@H](CO)C(=O)N[C@@H](Cc1c[nH]c2ccccc12)C(=O)N[C@H](C(=O)N[C@@H](CCCCN)C(=O)N[C@@H](CCCNC(=N)N)C(=O)N[C@@H](CCCCN)C(=O)N[C@@H](CCCNC(=N)N)C(=O)N[C@@H](CCC(N)=O)C(=O)N[C@@H](CCC(N)=O)C(N)=O)[C@@H](C)CC)[C@@H](C)CC)[C@@H](C)O)[C@@H](C)O)C(C)C)C(C)C` [melittin], in series [2], the “haemolysis of human red blood cells” value is recorded as “highly haemolytic”. Regarding “Momordica cochinchinensis trypsin inhibitor-II [MCoTI-II]”, the anti-proliferative effect result in series [3] and in series [4] was “minor anti-proliferative effects” throughout. In addition, in series [5], the “effect on invasive cell migration” value is listed as “inhibited invasive cell migration”.

thrombospondin-1 type-1 repeats [TSR]: the “inhibition on HMVECs (migration)” value in series [6] is recorded as 35%. The “inhibition on HUVECs (migration)” value in series [7] was 60%. As to sunflower trypsin inhibitor-1 [SFTI-1], the anti-proliferative effect entry in series [3] and in series [4] was “minor anti-proliferative effects” throughout.
